Measured values taken from ChEMBL document CHEMBL3045449, “2-Bromo-1-ethoxy-(2,4-dichloro)styrene and 2,2-dibromo-1-ethoxy-(2,4-dichloro)styrenethe two impurities of bromfenvinphos; their identification, synthesis and full characterization” (J Pestic Sci, 2010).
Calls of active or inactive are those of the source.

Tests used:
Format in all cases: functional, organism-based
[1] = tested on: Blatta orientalis; experiment: Insecticidal activity against Blatta orientalis
[2] = tested on: Musca domestica; experiment: Insecticidal activity against Musca domestica (house fly)
[3] = tested on: Sitophilus granarius; experiment: Insecticidal activity against Sitophilus granarius (granary weevil)
[4] = tested on: Tetranychus urticae; experiment: Insecticidal activity against Tetranychus urticae (two-spotted spider mite)

Measured: Activity

CCOC(=CBr)c1ccc(Cl)cc1Cl (mixture of isomers)
inactive: all assays above

CCOC(=C(Br)Br)c1ccc(Cl)cc1Cl
inactive: all assays above
